These results are taken from patent US12590111B2, “Flavonoid derivative for treating dental caries” (Mühlbauer Technology GmbH, priority 2019, dated 2026).

The target of data set [1] is T1, glucosyltransferase C of S. mutans (Streptococcus mutans serotype c, UniProt P13470).
T1 construct: purchased nzytech
The data set is described as follows: Inhibition of glucosyltransferase GtfC activity (fructose release, K-FRUGL kit). The format is biochemical. To be noted: for inhibition of glucosyltransferase C activity: 30 mM sucrose, pH 6.0, 1 h, 37° C.; for remaining enzyme activity: normalized to solvent control, FIG. 2. As for the experimental part:
(§1) For this purpose, the test substance was resuspended in a DMSO/ethanol mixture (20/80%) and then diluted in the reaction mixture to the concentration to be tested (final concentration DMSO/ethanol 2/8%). The glucosyltransferase GtfC (0.3 μg, nzytech) was incubated in 100 mM potassium phosphate buffer, pH 6.0 with 30 mM sucrose for one hour at 37° C. in the presence of the test substances. As a positive control, the enzyme activity was measured in the presence of DMSO/ethanol (2/8%). […] For this purpose, the D-fructose and D-glucose assay kit from Megazyme (K-FRUGL) was used.
D-glucose and D-fructose are phosphorylated in the presence of adenosine-5-triphosphate (ATP) to glucose-6-phosphate (G-6-P) and fructose-6-phosphate (F-6-P) by the enzyme hexokinase (HK), producing adenosine 5′-diphosphate (ADP) (1), (2).
In the presence of the enzyme glucose-6-phosphate dehydrogenase (G6P-DH), G-6-P is oxidized to gluconate-6-phosphate by nicotinamide adenine dinucleotide (NADP^+). This produces reduced nicotinamide adenine dinucleotide phosphate (NADPH) (3).
The amount of NADPH formed in this reaction corresponds stoichiometrically to the amount of D-glucose. The absorption of NADPH is measured at 340 nm.
After completion of the reaction (3), F-6-P is converted to G-6-P by phosphoglucose isomerase (PGI) (4).
The G-6-P formed reacts in turn with NADP^+ to form gluconate-6-phosphate and NADPH, which leads to a further increase in absorption and correlates stoichiometrically with the amount of D-fructose.
(§2) 9 independent reaction batches were measured in triplicate and the enzyme activity was normalized to the solvent control.

Data set [2] addresses T2, GtfC enzyme activity of S. mutans (Streptococcus mutans serotype c, UniProt P13470).
T2 construct: purchased nzytech
The data set is described as follows: GtfC activity with flavonoid derivative bound to hydroxyapatite. The conditions noted are these: bound to HAP as in Example 4; activity in supernatant; FIG. 4. The format is biochemical. As for the experimental part:
ApiBisPhos UD was bound to HAP as described in Example 4 and then incubated with GtfC as described in Example 3. The HAP was then centrifuged off and the GtfC activity in the supernatant was then determined as described in Example 3. A similar procedure was followed with the further flavonoid derivative “ApiBisPhos EG” according to the invention. […] In other words, the further example of a flavonoid derivative according to the invention (“ApiBisPhos EG”) confirms the successful functioning of the present invention as the basis for achieving the advantage according to the invention based on the adhesion of the flavonoid derivative according to the invention to the tooth surface comprising hydroxyapatite, so that the flavonoid derivative can prevent or to a great extent inhibit the formation of biofilm causing dental diseases on the tooth surfaces treated with the flavonoid derivative in the long term.

Another data set relates to S. mutans biofilm. The data set is described as follows: S. mutans biofilm formation on saliva-coated hydroxyapatite disks (crystal violet). To be noted: HAP disks pretreated with 60 μl 10 mM, 60 min; 24 h culture at 37° C.; relative to solvent control. The format is cell-based. How it is done: In this example, it was investigated whether “ApibisPhos UD” has a significant influence on S. mutans-mediated biofilm formation using hydroxyapatite discs coated with saliva under conditions simulating the oral cavity.
For this purpose, sterile hydroxyapatite disks (Clarkson Chromatography Products Inc., Ø5 mm×2 mm) were coated with saliva (Lee Biosolutions, human pooled donors) as substrate for 60 minutes and then incubated with ApiBisPhos UD (60 μl; 10 mM in DMSO/ethanol mixture, 20/80%) for 60 minutes. After washing twice with DPBS, these pretreated hydroxyapatite disks were coated with S. mutans preculture (1.5×10^8 bacteria per ml in Balmelli broth) and cultured aerobically at 37° C. for 24 hours. The grown biofilm was fixed with 100% ethanol (30 min, 25° C.), stained with 0.06% (w/v) crystal violet (60 min, 25° C.) and the dye eluted with 30% (v/v) acetic acid quantified by measuring the absorbance at 570 nm. The measured values were set in relation to the solvent control (DMSO/ethanol mixture; 20/80%), i.e. without the use of ApibisPhos UD.

Data set [3] is described as follows: Solubility in the GtfC reaction mixture. It is filed as physicochemical. The conditions noted are these: 6 mM; final DMSO/ethanol 2/8%. As for the experimental part: as §1, §2
Where [4] appears, read: pH 6, read-out: inhibition of glucosyltransferase C activity.

T1 sequence (P13470 35-1455): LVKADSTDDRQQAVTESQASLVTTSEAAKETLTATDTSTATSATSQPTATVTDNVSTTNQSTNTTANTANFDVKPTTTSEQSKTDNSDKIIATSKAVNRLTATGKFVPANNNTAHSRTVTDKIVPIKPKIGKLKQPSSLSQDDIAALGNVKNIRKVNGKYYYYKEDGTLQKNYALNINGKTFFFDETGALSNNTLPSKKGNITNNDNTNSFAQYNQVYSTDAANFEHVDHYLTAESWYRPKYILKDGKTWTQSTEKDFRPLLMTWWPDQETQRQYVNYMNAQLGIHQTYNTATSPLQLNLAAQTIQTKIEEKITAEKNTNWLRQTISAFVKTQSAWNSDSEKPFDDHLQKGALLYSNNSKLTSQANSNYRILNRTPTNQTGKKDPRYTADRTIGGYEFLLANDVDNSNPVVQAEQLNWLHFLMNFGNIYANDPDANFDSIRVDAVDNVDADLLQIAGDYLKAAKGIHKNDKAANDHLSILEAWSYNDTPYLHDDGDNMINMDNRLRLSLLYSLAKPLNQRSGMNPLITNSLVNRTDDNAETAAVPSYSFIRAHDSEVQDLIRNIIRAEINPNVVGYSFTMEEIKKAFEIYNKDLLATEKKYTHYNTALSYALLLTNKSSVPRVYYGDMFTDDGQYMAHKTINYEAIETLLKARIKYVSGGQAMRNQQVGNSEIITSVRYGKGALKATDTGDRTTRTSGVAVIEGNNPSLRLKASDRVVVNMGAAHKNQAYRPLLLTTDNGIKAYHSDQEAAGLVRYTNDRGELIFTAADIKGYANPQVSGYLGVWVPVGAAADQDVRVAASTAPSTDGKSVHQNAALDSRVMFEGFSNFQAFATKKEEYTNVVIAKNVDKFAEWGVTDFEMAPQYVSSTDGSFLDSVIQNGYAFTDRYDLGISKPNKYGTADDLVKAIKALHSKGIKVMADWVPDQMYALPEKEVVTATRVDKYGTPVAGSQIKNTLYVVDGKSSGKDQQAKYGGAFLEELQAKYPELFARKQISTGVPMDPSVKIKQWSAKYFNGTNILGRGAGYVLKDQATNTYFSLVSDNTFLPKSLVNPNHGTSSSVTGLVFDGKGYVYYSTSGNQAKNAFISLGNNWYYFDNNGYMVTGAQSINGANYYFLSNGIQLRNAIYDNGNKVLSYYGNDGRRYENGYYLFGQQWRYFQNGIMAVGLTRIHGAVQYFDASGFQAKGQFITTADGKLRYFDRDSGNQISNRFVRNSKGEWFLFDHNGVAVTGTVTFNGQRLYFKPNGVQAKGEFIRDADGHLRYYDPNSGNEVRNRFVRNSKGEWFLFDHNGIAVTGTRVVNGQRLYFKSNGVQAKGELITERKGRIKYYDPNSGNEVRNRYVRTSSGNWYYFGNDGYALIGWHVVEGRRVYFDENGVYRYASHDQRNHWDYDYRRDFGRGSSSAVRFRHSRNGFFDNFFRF
T2 sequence (P13470 35-1455): as above

As for “Mixture of 4′-(11,11-bisphosphonoundecanoxy)-7,5-dihydroxyflavone and 7-(11,11-bisphosphonoundecanoxy)-4′, 5-dihydroxyflavone [ApiBisPhos UD]”, the “inhibition of glucosyltransferase C activity” value in data set [1] (1 mM) worked out at 72±9%; in data set [1] (3 mM), 90±4%; in data set [1] (6 mM) it was 99±2%. For the same compound, the remaining enzyme activity result was “less than 30%” in data set [1] (1 mM) and “about 10%” in data set [1] (3 mM). Moreover, the “inhibition of GtfC enzyme activity by substance bound to hydroxyapatite” value in data set [2] is reported as “inhibit the GtfC enzyme activity of S. mutans to a considerable degree”. For the same compound, in the data set with S. mutans biofilm, the “inhibition of biofilm formation on HAP surfaces” value is reported as 26±9%.

With “Mixture of 4′-(12,12-bisphosphono-3,6,9-trioxadodecanoxy)-7,5-dihydroxyflavone and 7-(12,12-bisphosphono-3,6,9-trioxadodecanoxy)-4′,5-dihydroxyflavone [ApiBisPhos EG]”, the “inhibition of GtfC enzyme activity by substance bound to hydroxyapatite” value in data set [2] is listed as “inhibit the GtfC enzyme activity of S. mutans to a considerable degree”.

As for `O=c1cc(-c2ccc(O)cc2)oc2cc(O)cc(O)c12` [apigenin, reference compound], in data set [1] (setting [4]), the inhibition at 1000 µM is 38 ± 10% and the inhibition at 3000 µM is 53 ± 6%. The solubility entry in data set [3] is “insufficient solubility”.

By inhibition is commonly meant the share of the control response that was lost under treatment.
